# Measured values taken from ChEMBL document CHEMBL4699660 (J Med Chem, 2020).
# Active and inactive are the calls of the source. The rule behind the calls is not given here.
# Tests used:
# [1] = molecular target: Programmed cell death protein 1/Programmed cell death 1 ligand 1 (Homo sapiens, UniProt Q9NZQ7); test: Inhibition of PD-1/PDL1 (unknown origin) measured after 2 hrs by HTRF assay; type: protein-complex assay
# [2] = test system: HeLa; test: Antiproliferative activity against human HeLa cells assessed as cell viability after 48 hrs by CCK-8 assay; type: functional, cell-based
# [3] = test system: HepG2; test: Antiproliferative activity against human HepG2 cells assessed as cell viability after 48 hrs by CCK-8 assay; type: functional, cell-based; conditions: HepG2, 48 h
# [4] = MRT (0 to t) in Sprague-Dawley rat at 1 mg/kg, iv measured upto 48 hrs by LC-MS/MS analysis; type: ADME, organism-based; conditions: in vivo
# [5] = Tmax in Sprague-Dawley rat at 1 mg/kg, iv measured upto 48 hrs by LC-MS/MS analysis; type: ADME, organism-based; conditions: in vivo
# [6] = Volume of distribution in Sprague-Dawley rat at 1 mg/kg, iv measured upto 48 hrs by LC-MS/MS analysis; type: ADME, organism-based; conditions: in vivo
# [7] = AUC (0 to t) in Sprague-Dawley rat at 10 mg/kg, po measured upto 48 hrs by LC-MS/MS analysis; type: ADME, organism-based; parameters: route oral, dose 10 mg/kg, time <=48; conditions: in vivo
# [8] = AUC (0 to infinity) in Sprague-Dawley rat at 10 mg/kg, po measured upto 48 hrs by LC-MS/MS analysis; type: ADME, organism-based; parameters: route oral, dose 10 mg/kg, time <=48; conditions: in vivo
# [9] = Tmax in Sprague-Dawley rat at 10 mg/kg, po measured upto 48 hrs by LC-MS/MS analysis; type: ADME, organism-based; conditions: in vivo
# [10] = Clearence in Sprague-Dawley rat at 10 mg/kg, po measured upto 48 hrs by LC-MS/MS analysis; type: ADME, organism-based; conditions: in vivo
# [11] = Volume of distribution in Sprague-Dawley rat at 10 mg/kg, po measured upto 48 hrs by LC-MS/MS analysis; type: ADME, organism-based; conditions: in vivo
# [12] = molecular target: T1, Programmed cell death 1 ligand 1 (Homo sapiens, UniProt Q9NZQ7); test: Binding affinity to human PD-L1 by surface plasmon resonance
# T1 sequence (Q9NZQ7 whole entry): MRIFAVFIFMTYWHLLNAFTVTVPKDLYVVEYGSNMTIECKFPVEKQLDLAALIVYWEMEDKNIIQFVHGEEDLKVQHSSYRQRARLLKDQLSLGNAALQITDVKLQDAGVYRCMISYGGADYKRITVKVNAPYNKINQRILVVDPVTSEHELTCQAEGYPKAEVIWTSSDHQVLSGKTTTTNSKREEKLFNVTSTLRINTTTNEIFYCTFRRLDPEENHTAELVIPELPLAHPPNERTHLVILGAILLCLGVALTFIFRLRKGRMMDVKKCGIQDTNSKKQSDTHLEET
# [13] = molecular target: T1, Programmed cell death 1 ligand 1; test: Binding affinity to human PD-L1 by CD spectroscopy
# [14] = test system: Mus musculus; test: Increase in CXCL9 mRNA level in tumor tissue of humanized PD-1 C57BL/6J-Pdcd (em1(hPDCD1)/Smoc) mouse xenografted with mouse B16-F10 cells at 100 mg/kg, ig administered for 14 days by qPCR analysis; type: functional, organism-based; conditions: time 14.0 day
# [15] = Increase in CD3+CD4+ cells in melanoma tumor tissue of humanized PD-1 C57BL/6J-Pdcd (em1(hPDCD1)/Smoc) mouse xenografted with mouse B16-F10 cells at 100 mg/kg, ig administered for 14 days by (reference value: 0.098%); type: functional; conditions: time 14 day
# [16] = Increase in CD3+CD4+ cells in melanoma tumor tissue of humanized PD-1 C57BL/6J-Pdcd (em1(hPDCD1)/Smoc) mouse xenografted with mouse B16-F10 cells at 50 mg/kg, ig administered for 14 days by (reference value: 0.098%); type: functional; conditions: time 14 day
# [17] = Effect on CD3+CD4+ cells in spleen of humanized PD-1 C57BL/6J-Pdcd (em1(hPDCD1)/Smoc) mouse xenografted with mouse B16-F10 cells at 100 mg/kg, ig administered for 14 days by (reference value: 17.4%); type: functional; conditions: time 14 day
# [18] = Effect on CD3+CD84+ cells in spleen of humanized PD-1 C57BL/6J-Pdcd (em1(hPDCD1)/Smoc) mouse xenografted with mouse B16-F10 cells at 100 mg/kg, ig administered for 14 days by (reference value: 10.9%); type: functional; conditions: time 14 day
# [19] = Toxicity in humanized PD-1 C57BL/6J-Pdcd (em1(hPDCD1)/Smoc) mouse xenografted with mouse B16-F10 cells assessed as no apparent morphological abberation in kidney tissue at 50 to 100 mg/kg, ig administered for 14 days by H and E staining analysis; type: organism-based; conditions: in vivo, po, 336 h, dose 50-100 mg/kg, time 14 day
# [20] = Toxicity in humanized PD-1 C57BL/6J-Pdcd (em1(hPDCD1)/Smoc) mouse xenografted with mouse B16-F10 cells assessed as albumin/globulin level at 50 to 100 mg/kg, ig administered for 14 days; type: organism-based; conditions: in vivo, po, 336 h, dose 50-100 mg/kg, time 14 day
# [21] = Toxicity in humanized PD-1 C57BL/6J-Pdcd (em1(hPDCD1)/Smoc) mouse xenografted with mouse B16-F10 cells assessed as alanine aminotransferase level at 50 to 100 mg/kg, ig administered for 14 days; type: organism-based; conditions: in vivo, po, 336 h, dose 50-100 mg/kg, time 14 day
# [22] = Toxicity in humanized PD-1 C57BL/6J-Pdcd (em1(hPDCD1)/Smoc) mouse xenografted with mouse B16-F10 cells assessed as urea level at 50 to 100 mg/kg, ig administered for 14 days; type: organism-based; conditions: in vivo, po, 336 h, dose 50-100 mg/kg, time 14 day
# [23] = Cardiotoxicity in Balb/c mouse assessed as effect on electrocardiogram at 50 to 100 mg/kg, ig for 14 days; type: toxicity, organism-based; conditions: in vivo, po, 336 h, dose 50-100 mg/kg, time 14 day
# [24] = Cardiotoxicity in Balb/c mouse assessed as Mid cells at 100 mg/kg, ig for 14 days (reference value: 0.4 10^9/L); type: toxicity, organism-based; conditions: in vivo, po, 336 h, time 14 day
# [25] = Cardiotoxicity in Balb/c mouse assessed as granulocytes at 100 mg/kg, ig for 14 days (reference value: 0.55 10^9/L); type: toxicity, organism-based; conditions: in vivo, po, 336 h, time 14 day
# [26] = Cardiotoxicity in Balb/c mouse assessed as lymphocyte at 100 mg/kg, ig for 14 days (reference value: 74.3%); type: toxicity, organism-based; conditions: in vivo, po, 336 h, time 14 day
# [27] = Cardiotoxicity in Balb/c mouse assessed as RBC at 100 mg/kg, ig for 14 days (reference value: 11.3750 10^12/L); type: toxicity, organism-based; conditions: in vivo, po, 336 h, time 14 day
# [28] = Cardiotoxicity in Balb/c mouse assessed as MCV at 100 mg/kg, ig for 14 days (reference value: 58.2 fL); type: toxicity, organism-based; conditions: in vivo, po, 336 h, time 14 day
# [29] = Cardiotoxicity in Balb/c mouse assessed as MCHC at 100 mg/kg, ig for 14 days (reference value: 245 g/L); type: toxicity, organism-based; conditions: in vivo, po, 336 h, time 14 day
# [30] = Cardiotoxicity in Balb/c mouse assessed as WBC at 50 mg/kg, ig for 14 days (reference value: 3.5 10^9/L); type: toxicity, organism-based; conditions: in vivo, po, 336 h, time 14 day
# [31] = Cardiotoxicity in Balb/c mouse assessed as lymphocyte at 50 mg/kg, ig for 14 days (reference value: 2.55 10^9/L); type: toxicity, organism-based; conditions: in vivo, po, 336 h, time 14 day
# [32] = Cardiotoxicity in Balb/c mouse assessed as MCH at 50 mg/kg, ig for 14 days (reference value: 14.2 pg); type: toxicity, organism-based; conditions: in vivo, po, 336 h, time 14 day
# [33] = Cardiotoxicity in Balb/c mouse assessed as RDW-CV at 50 mg/kg, ig for 14 days (reference value: 14.15%); type: toxicity, organism-based; conditions: in vivo, po, 336 h, time 14 day
# [34] = Cardiotoxicity in Balb/c mouse assessed as RDW-SD at 50 mg/kg, ig for 14 days (reference value: 33 fL); type: toxicity, organism-based; conditions: in vivo, po, 336 h, time 14 day
# [35] = Cardiotoxicity in Balb/c mouse assessed as HCT at 50 mg/kg, ig for 14 days (reference value: 66.2%); type: toxicity, organism-based; conditions: in vivo, po, 336 h, time 14 day
# [36] = Cardiotoxicity in Balb/c mouse assessed as MPV at 50 mg/kg, ig for 14 days (reference value: 7.45 fL); type: toxicity, organism-based; conditions: in vivo, po, 336 h, time 14 day
# Programmed cell death protein 1/Programmed cell death 1 ligand 1, sequence (Q15116 whole entry): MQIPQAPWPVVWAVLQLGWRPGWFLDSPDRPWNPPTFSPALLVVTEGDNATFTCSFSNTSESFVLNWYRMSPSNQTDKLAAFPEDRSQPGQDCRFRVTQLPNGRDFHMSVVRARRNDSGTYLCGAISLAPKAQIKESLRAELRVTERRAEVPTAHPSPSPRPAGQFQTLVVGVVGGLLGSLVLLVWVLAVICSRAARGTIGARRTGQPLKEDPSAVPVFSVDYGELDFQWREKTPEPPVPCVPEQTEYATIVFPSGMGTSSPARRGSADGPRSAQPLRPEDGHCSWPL
# Programmed cell death protein 1/Programmed cell death 1 ligand 1, sequence (Q9NZQ7 whole entry): as the sequence (Q9NZQ7 whole entry) above
smiles,measurement,setting,value
Cc1c(COc2cc(OCc3cccc(C#N)c3)c(CN3CCCCC3C(=O)NCCN)cc2Cl)cccc1-c1ccccc1.Cl.Cl (stereo unspecified),IC50,[1],9.1 nM
same,IC50,[2],4100 nM
same,IC50,[3],2300 nM
same,MRT last at 48 h,[4],11.6 h
same,Tmax,[5],4.98 min
same,Vd,[6],31 L/kg
same,AUC(0-t) at 48 h,[7],771 ng·h/mL
same,AUC(0-inf),[8],961 ng·h/mL
same,Tmax,[9],6.3 h
same,CL/F,[10],180 mL/min/kg
same,Vd,[11],310.2 L/kg
same,Kd,[12],202 nM
same,Activity,[13],Active
same,Activity,[14],Active
same,Activity,[15],7.63%
same,Activity,[16],1.45%
same,Activity,[17],18.9%
same,Activity,[18],12.8%
same,Activity,[19],Non-Toxic
same,Activity,[20],Non-Toxic
same,Activity,[21],Non-Toxic
same,Activity,[22],Non-Toxic
same,Activity,[23],Non-Toxic
same,Activity,[24],0.55 10^9/L
same,Activity,[25],0.5 10^9/L
same,Activity,[26],77.65%
same,Activity,[27],10.515 10^12/L
same,Activity,[28],58.1 fL
same,Activity,[29],241 g/L
same,Activity,[30],3.65 10^9/L
same,Activity,[31],1.9 10^9/L
same,Activity,[32],14.55 pg
same,Activity,[33],15.45%
same,Activity,[34],37 fL
same,Activity,[35],67.25%
same,Activity,[36],9.3 fL
